Refractive index data for three compounds are collected here from the NIST ThermoML archive (doi:10.1016/j.fluid.2005.12.006).

Numbers after ± are expanded uncertainties.

The data set can be described thus: refractive index (Na D-line) (dimensionless). The conditions noted are these: 293.1 K; 101.33 kPa; Liquid; Standard Abbe refractometry.
Turning to `CCC(C)c1ccccc1` (stereo not drawn) [(1-methylpropyl)benzene], the refractive index worked out at 1.489 ± 0.0007. For `CCCCCCCCCCCC` [dodecane], the refractive index stood at 1.422 ± 0.0007. Next, `CN(C)C=O` [dimethylformamide]: 1.4281 ± 0.0007.

A word on the refractive index: it is the speed of light in vacuum divided by its phase velocity in the sample.
